From US20240368151A1, “NOVEL ERGOLINES AND METHODS OF TREATING MOOD DISORDERS” (priority 2021, published 2024)

Experiments:
5-HT2A receptor = 5-HT2A receptor (Homo sapiens (Human), UniProt P28223); type: cell-based; details: for 5-HT2A % Act @ Max Dose: Ca^2+ flux, HEK293
Procedure, shortened: (§1)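 Agonist-induced calcium flux was measured on FLIPR Tetra in stable HEK293 cells for 5-HT2A and 5-HT2B, and in stable CHO cells for 5-HT1A. Cells were loaded with Fluo-4 Direct dye and 2.5 mM probenecid for 50 min at 37 °C before compound addition and fluorescence reading.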

5-HT2B receptor = 5-HT2B receptor (Homo sapiens (Human), UniProt P41595); experiment: FLIPR Ca^2+ flux agonist assay at 5-HT2B; type: cell-based; details: HEK293
Procedure, shortened: as §1

human 5-HT2C receptor = human 5-HT2C receptor (Homo sapiens (Human), UniProt P28335); type: cell-based; details: Ca^2+ flux
5-HT1A receptor = 5-HT1A receptor (Homo sapiens (Human), UniProt P08908); experiment: FLIPR Ca^2+ flux agonist assay at 5-HT1A; type: cell-based; details: CHO cells
5-HT1B receptor = 5-HT1B receptor (Homo sapiens (Human), UniProt P28222); experiment: cAMP accumulation agonist assay at 5-HT1B; type: cell-based
Procedure, shortened: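 Stably transfected cells expressing human 5-HT1B were incubated with compound for 60 min at RT to measure agonist-driven cAMP accumulation. Detection reagent was then added for another 60 min at RT, with 800 nM cAMP standard in blank wells, and plates were read on a multilabel reader.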

Alpha2A receptor = Alpha2A receptor (Homo sapiens (Human), UniProt P08913); experiment: FLIPR Ca^2+ flux agonist assay at Alpha2A; type: cell-based
Method: (§2) Functional Assays at Adrenergic and Dopamine Receptors. Agonist activity at Alpha1A, Alpha2A, D1, and D2 receptors was determined using a FLIPR Ca^2+ flux assay at WuXi AppTec (Hong Kong) Limited according to their standard protocols. Briefly, stably transfected cells expressing the receptor of interest were grown and plated in a 384 well plate and incubated at 37° C. and 5% CO2 overnight. A solution of 250 mM probenecid in 1 mL FLIPR assay buffer was prepared fresh. This was combined with a fluorescent dye (Fluo-4 Direct™) to make a final assay concentration of 2.5 mM. […] The fluorescent dye was then added to the assay plate along with assay buffer to a final volume of 40 μL. The cell plate was incubated for 50 min at 37° C. and 5% CO2 and placed into the FLIPR Tetra along with the compound plate. 10 μL of references and compounds were then transferred from the compound plate into the cell plate and the fluorescent signal was read.

D2 receptor = D2 receptor (Homo sapiens (Human), UniProt P14416); experiment: FLIPR Ca^2+ flux agonist assay at D2; type: cell-based
Method: as §2

Sprague Dawley rats = experiment: Forced swim test (FST) in rats; type: in vivo, rat; details: for Time Immobile / efficacy in FST relative to positive control desipramine, in words: rat FST; for Time Immobile: 23.5 hours after a single dose; for efficacy in FST relative to positive control desipramine, in words: 0.032 mg/kg
Method: Compound 1 induced antidepressant-like effects in the forced swim test (FST) in rats with a 23.5-h pre-treatment time (FIG. 2).
Animals. Male Sprague Dawley rats, aged 9-10 weeks, were used in this experiment. Animals were housed in groups of 2 under controlled temperature (22±3° C.) and relative humidity (30-70%) conditions, with 12-hour light/dark cycles, and with ad libitum food and water. This study was carried out in strict accordance with the requirements of the Committee for the Purpose of Control and Supervision of Experiments on Animals (CPCSEA), India. All efforts were made to minimize suffering.
Drugs and Drug Administration. Compound 1 was synthesized as described above. Desipramine HCl was commercially obtained. The test compound, saline vehicle, and the positive control desipramine were administered subcutaneously (SC), with doses calculated based on the freebase. Normal saline was used as the vehicle. All compounds were administered at a volume of 5 mL/kg. The test compound and vehicle were administered 0.5 h after the start of the training swim (Swim 1) and 23.5 h before the test swim (Swim 2). Desipramine was administered 3 times, at 23.5 h, 5 h, and 1 h before the test swim (Swim 2), each time at a dose of 20 mg/kg. Group size was n=10 per treatment.
Forced Swim Test (FST). […] Rats were handled for about 2 min daily for the 5 days prior to the beginning of the experimental procedure. On the first day of the experiment (i.e., Day 0), post randomization, training swim sessions (Swim 1) were conducted between 12:00 and 18:00 h with all animals by placing rats in individual glass cylinders (46 cm tall×20 cm in diameter) containing 23-25° C. water 30 cm deep for 15 minutes. At the conclusion of Swim 1, animals were dried with paper towels, placed in heated drying cages for 15 minutes, and then returned to their home cages. Animals were then administered the appropriate drug or vehicle treatment(s), as described above. For clarity, a compound administration time of 23.5 h before Swim 2 means 0.5 h after the start of Swim 1 and 0.25 h after the completion of Swim 1 (i.e., immediately after return to the home cage). On Day 1 (i.e., 24 h after start of Swim 1), animals performed the test swim (Swim 2) for a period of 5 min but otherwise under the same conditions as Swim 1. During all swim sessions, the water was changed between each animal.
Behavioral scoring was conducted by observers who were blind to the treatment groups. Animals were continuously observed during Swim 2 and the total time spent engaging in the following behaviors was recorded: immobile, swimming, and climbing. A rat was judged to be immobile when it remained floating in the water without struggling and was making only those movements necessary to keep its head above water. A rat was judged to be swimming when it made active swimming motions, more than necessary to merely maintain its head above water (e.g., moving around in the cylinder). A rat was judged to be climbing when it made active movements with its forepaws in and out of the water, usually directed against the walls.
Statistical Analysis. The data points shown represent the mean±standard error of the mean (SEM). Analysis was performed using GraphPad Prism 6. Comparisons between groups were performed using the one-way analysis of variance (ANOVA), followed by Dunnett's test for comparisons to vehicle.
Additional disclosed compounds were tested in the forced swim test (FST) in rats according to the procedure described in Example 35.

[1] = Metabolic stability in human liver microsomes (HLM); type: in vitro ADME; details: both sexes, human, pooled human liver microsomes, pH 7.4, NADPH
Excerpt: HLM Stability. Pooled HLM from adult male and female donors (Corning 452117) were used.

D2 receptor, sequence (P14416 whole entry, looked up): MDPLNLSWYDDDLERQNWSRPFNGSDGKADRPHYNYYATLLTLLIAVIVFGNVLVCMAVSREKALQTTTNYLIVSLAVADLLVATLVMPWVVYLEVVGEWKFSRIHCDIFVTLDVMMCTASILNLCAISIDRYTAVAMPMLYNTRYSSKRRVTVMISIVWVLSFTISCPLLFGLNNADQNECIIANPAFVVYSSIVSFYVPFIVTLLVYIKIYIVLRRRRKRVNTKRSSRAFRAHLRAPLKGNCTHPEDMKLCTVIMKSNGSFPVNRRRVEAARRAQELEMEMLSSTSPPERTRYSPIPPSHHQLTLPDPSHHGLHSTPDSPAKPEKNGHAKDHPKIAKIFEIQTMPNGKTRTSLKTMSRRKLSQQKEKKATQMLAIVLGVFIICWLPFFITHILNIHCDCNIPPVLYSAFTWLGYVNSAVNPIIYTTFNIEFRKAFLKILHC
5-HT1B receptor, sequence (P28222 whole entry, looked up): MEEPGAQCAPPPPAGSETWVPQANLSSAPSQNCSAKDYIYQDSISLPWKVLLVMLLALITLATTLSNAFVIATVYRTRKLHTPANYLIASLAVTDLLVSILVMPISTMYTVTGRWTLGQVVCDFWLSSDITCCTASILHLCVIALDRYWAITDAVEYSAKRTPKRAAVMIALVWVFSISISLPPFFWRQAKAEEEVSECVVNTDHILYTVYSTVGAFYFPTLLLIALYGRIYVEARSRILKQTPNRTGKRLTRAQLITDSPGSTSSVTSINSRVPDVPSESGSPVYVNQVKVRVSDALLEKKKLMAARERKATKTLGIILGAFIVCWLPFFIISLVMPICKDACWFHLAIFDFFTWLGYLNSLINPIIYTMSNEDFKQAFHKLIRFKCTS
Alpha2A receptor, sequence (P08913 whole entry, looked up): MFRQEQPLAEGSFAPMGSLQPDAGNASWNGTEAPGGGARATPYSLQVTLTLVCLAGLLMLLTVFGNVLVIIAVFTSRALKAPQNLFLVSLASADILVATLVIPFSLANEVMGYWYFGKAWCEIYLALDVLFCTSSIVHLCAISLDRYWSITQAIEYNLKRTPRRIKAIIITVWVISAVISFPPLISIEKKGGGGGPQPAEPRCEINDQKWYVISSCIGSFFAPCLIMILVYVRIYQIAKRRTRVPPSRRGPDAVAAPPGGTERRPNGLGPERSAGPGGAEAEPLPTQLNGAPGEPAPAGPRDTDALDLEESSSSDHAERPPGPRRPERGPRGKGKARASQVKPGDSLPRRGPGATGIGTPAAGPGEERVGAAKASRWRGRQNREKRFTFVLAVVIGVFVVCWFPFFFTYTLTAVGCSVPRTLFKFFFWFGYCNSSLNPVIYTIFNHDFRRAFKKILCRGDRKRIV
5-HT2B receptor, sequence (P41595 whole entry, looked up): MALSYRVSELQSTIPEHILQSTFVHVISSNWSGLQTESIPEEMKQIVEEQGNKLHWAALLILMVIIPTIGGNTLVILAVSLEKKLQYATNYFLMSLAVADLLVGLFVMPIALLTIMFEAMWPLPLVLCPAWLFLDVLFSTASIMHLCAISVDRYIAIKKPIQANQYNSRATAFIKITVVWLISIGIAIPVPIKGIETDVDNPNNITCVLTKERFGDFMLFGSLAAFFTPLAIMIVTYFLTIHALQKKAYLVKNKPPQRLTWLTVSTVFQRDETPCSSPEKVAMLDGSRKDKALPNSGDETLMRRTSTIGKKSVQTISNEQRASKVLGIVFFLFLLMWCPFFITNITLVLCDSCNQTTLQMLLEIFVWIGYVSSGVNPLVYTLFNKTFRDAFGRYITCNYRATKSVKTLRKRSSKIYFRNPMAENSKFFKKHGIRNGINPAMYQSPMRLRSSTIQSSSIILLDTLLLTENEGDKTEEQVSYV
human 5-HT2C receptor, sequence (P28335 33-458 limits assumed): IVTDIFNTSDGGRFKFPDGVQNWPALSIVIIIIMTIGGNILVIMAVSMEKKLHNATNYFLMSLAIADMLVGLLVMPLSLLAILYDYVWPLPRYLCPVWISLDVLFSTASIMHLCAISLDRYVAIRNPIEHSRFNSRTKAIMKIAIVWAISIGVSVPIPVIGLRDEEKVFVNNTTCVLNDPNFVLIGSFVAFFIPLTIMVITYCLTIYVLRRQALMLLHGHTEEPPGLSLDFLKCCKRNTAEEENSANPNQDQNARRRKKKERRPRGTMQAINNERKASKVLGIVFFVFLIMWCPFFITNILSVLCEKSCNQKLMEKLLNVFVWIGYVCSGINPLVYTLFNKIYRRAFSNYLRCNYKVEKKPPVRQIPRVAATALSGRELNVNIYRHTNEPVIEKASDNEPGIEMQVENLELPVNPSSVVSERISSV

CCCN1C[C@H](C(=O)N(CC)CC)C=C2c3cccc4[nH]cc(c34)C[C@H]21 [Compound 1, (6aR,9R)-N,N-diethyl-7-propyl-4,6,6a,7,8,9-hexahydroindolo[4,3-fg]quinoline-9-carboxamide]
5-HT2A % Act @ Max Dose (5-HT2A receptor): 96.96% | 5-HT2B % Act @ Max Dose (5-HT2B receptor): 103.75% | 5-HT2C % Act @ Max Dose (human 5-HT2C receptor): 106.79% | 5-HT1A % Act @ Max Dose (5-HT1A receptor): 95.6% | 5-HT1B % Act @ Max Dose (5-HT1B receptor): 96.6% | Alpha 2A % Act @ Max Dose (Alpha2A receptor): 58.3% | D2 % Act @ Max Dose (D2 receptor): 94.51% | Time Immobile (Sprague Dawley rats; 0.032 mg/kg SC): 161.6 s | Time Immobile (Sprague Dawley rats; 0.32 mg/kg SC): 68.2 s | immobility time relative to vehicle control, in words (Sprague Dawley rats; rats, SC, 23.5 hours after a single administration): reduced immobility time | half-life at 1 μM [1]: 15.1 min

CCN(CC)C(=O)[C@@H]1C=C2c3cccc4[nH]cc(c34)C[C@H]2N(CCCF)C1 [Compound 2, (6aR,9R)-N,N-diethyl-7-(3-fluoropropyl)-4,6,6a,7,8,9-hexahydroindolo[4,3-fg]quinoline-9-carboxamide]
5-HT2A % Act @ Max Dose (5-HT2A receptor): 97.75% | 5-HT2B % Act @ Max Dose (5-HT2B receptor): 101.16% | 5-HT2C % Act @ Max Dose (human 5-HT2C receptor): 105.48% | 5-HT1A % Act @ Max Dose (5-HT1A receptor): 92.42% | 5-HT1B % Act @ Max Dose (5-HT1B receptor): 89.97% | Alpha 2A % Act @ Max Dose (Alpha2A receptor): 64.96% | D2 % Act @ Max Dose (D2 receptor): 91.2% | Time Immobile (Sprague Dawley rats; 0.032 mg/kg SC): 76.44 s | efficacy in FST relative to positive control desipramine, in words (Sprague Dawley rats; SC): as efficacious as the positive control desipramine | Time Immobile (Sprague Dawley rats; 0.32 mg/kg SC): 41.33 s | half-life at 1 μM [1]: 19.1 min

CCCN1C[C@H](C(=O)N[C@H](C)CC)C=C2c3cccc4[nH]cc(c34)C[C@H]21 [Compound 3, (6aR,9R)-N-((R)-sec-butyl)-7-propyl-4,6,6a,7,8,9-hexahydroindolo[4,3-fg]quinoline-9-carboxamide]
5-HT2A % Act @ Max Dose (5-HT2A receptor): 102.64% | selectivity for the 5-HT2A receptor over the tested adrenergic and dopamine receptors, in words (5-HT2A receptor; vs Alpha1A, Alpha2A, D1, D2): exceptional selectivity | 5-HT2B % Act @ Max Dose (5-HT2B receptor): 94.11% | 5-HT2C % Act @ Max Dose (human 5-HT2C receptor): 119.49% | 5-HT1A % Act @ Max Dose (5-HT1A receptor): 107.6% | 5-HT1B % Act @ Max Dose (5-HT1B receptor): 98.66% | Alpha 2A % Act @ Max Dose (Alpha2A receptor): 96.82% | D2 % Act @ Max Dose (D2 receptor): 116.9% | Time Immobile (Sprague Dawley rats; 0.032 mg/kg SC): 137.5 s | Time Immobile (Sprague Dawley rats; 0.32 mg/kg SC): 50.4 s | half-life at 1 μM [1]: 4.2 min

CCCN1C[C@H](C(=O)N2[C@@H](C)C[C@@H]2C)C=C2c3cccc4[nH]cc(c34)C[C@H]21 [Compound 4, ((2S,4S)-2,4-dimethylazetidin-1-yl)((6aR,9R)-7-propyl-4,6,6a,7,8,9-hexahydroindolo[4,3-fg]quinolin-9-yl)methanone]
5-HT2A % Act @ Max Dose (5-HT2A receptor): 97.6% | 5-HT2B % Act @ Max Dose (5-HT2B receptor): 87.46% | 5-HT2C % Act @ Max Dose (human 5-HT2C receptor): 110.845% | 5-HT1A % Act @ Max Dose (5-HT1A receptor): 123.1% | 5-HT1B % Act @ Max Dose (5-HT1B receptor): 96% | Alpha 2A % Act @ Max Dose (Alpha2A receptor): 102.86% | D2 % Act @ Max Dose (D2 receptor): 116.6% | Time Immobile (Sprague Dawley rats; 0.01 mg/kg SC): 110.4 s | Time Immobile (Sprague Dawley rats; 0.032 mg/kg SC): 68.89 s | efficacy in FST relative to positive control desipramine, in words (Sprague Dawley rats; SC): as efficacious as the positive control desipramine | Time Immobile (Sprague Dawley rats; 0.32 mg/kg SC): 117.9 s | half-life at 1 μM [1]: 10.6 min

CCCN1C[C@H](C(=O)NC(CC)CC)C=C2c3cccc4[nH]cc(c34)C[C@H]21 [Compound 6, (6aR,9R)-N-(pentan-3-yl)-7-propyl-4,6,6a,7,8,9-hexahydroindolo[4,3-fg]quinoline-9-carboxamide]
5-HT2A % Act @ Max Dose (5-HT2A receptor): 94.64% | 5-HT2B % Act @ Max Dose (5-HT2B receptor): 92.93% | 5-HT2C % Act @ Max Dose (human 5-HT2C receptor): 116.77% | 5-HT1A % Act @ Max Dose (5-HT1A receptor): 101.82% | 5-HT1B % Act @ Max Dose (5-HT1B receptor): 94.62% | D2 % Act @ Max Dose (D2 receptor): 91.67% | Time Immobile (Sprague Dawley rats; 0.032 mg/kg SC): 93.6 s | Time Immobile (Sprague Dawley rats; 0.32 mg/kg SC): 76.6 s | half-life at 1 μM [1]: 1.61 min

CCN(CC)C(=O)[C@@H]1C=C2c3cccc4[nH]cc(c34)C[C@H]2N(Cc2ccccc2OC)C1 [Compound 10, (6aR,9R)-N,N-diethyl-7-(2-methoxybenzyl)-4,6,6a,7,8,9-hexahydroindolo[4,3-fg]quinoline-9-carboxamide]
5-HT2A % Act @ Max Dose (5-HT2A receptor): 49.44% | 5-HT2B % Act @ Max Dose (5-HT2B receptor): 2.005% | 5-HT2C % Act @ Max Dose (human 5-HT2C receptor): 13.417% | 5-HT1A % Act @ Max Dose (5-HT1A receptor): 52.96% | 5-HT1B % Act @ Max Dose (5-HT1B receptor): 87.29% | Alpha 2A % Act @ Max Dose (Alpha2A receptor): 36.52% | agonist efficacy at Alpha2A, in words (Alpha2A receptor): very low efficacy agonists | D2 % Act @ Max Dose (D2 receptor): 86.87% | half-life at 1 μM [1]: 7.3 min

CCN(CC)C(=O)[C@@H]1C=C2c3cccc4[nH]cc(c34)C[C@H]2N(CCc2ccccc2OC)C1 [Compound 11, (6aR,9R)-N,N-diethyl-7-(2-methoxyphenethyl)-4,6,6a,7,8,9-hexahydroindolo[4,3-fg]quinoline-9-carboxamide]
5-HT2A % Act @ Max Dose (5-HT2A receptor): 63.46% | 5-HT2B % Act @ Max Dose (5-HT2B receptor): 2.5% | 5-HT2C % Act @ Max Dose (human 5-HT2C receptor): 107.89% | 5-HT1A % Act @ Max Dose (5-HT1A receptor): 57.91% | 5-HT1B % Act @ Max Dose (5-HT1B receptor): 47.01% | Alpha 2A % Act @ Max Dose (Alpha2A receptor): 14.18% | agonist efficacy at Alpha2A, in words (Alpha2A receptor): very low efficacy agonists | D2 % Act @ Max Dose (D2 receptor): 98.49% | half-life at 1 μM [1]: 2.37 min
